Data: patent US11771737B2, “Treating or preventing adverse liver conditions” (priority 2017, dated 2023)

Legend:
[1] = system: CXCL16; experiment: CXCL16 mRNA in SK-HEP1 cells administered bile acids; type: cell-based, human; conditions: 24 hours
Description: FIG. 34A is a dot plot showing CXCL16 mRNA levels measured by real-time PCR in SK-HEP1 cells administered different bile acids, in accordance with embodiments of the invention. n=6, p<0.05, one-way ANOVA.
(§1) Primary mice liver sinusoidal endothelia cells were isolated as previously described (Limmer et al., Nat. Med., 6: 1348-1354 (2000), incorporated by reference herein). Briefly, mice were CO2 euthanized, and then the portal vein was cannulated, and the liver was perfused with 0.05% collagenase in Ca^2+ deprived medium. Liver cells were dissociated, and parenchymal cells were killed by incubation in 0.04% collagenase in Gey's balanced salt solution at 37° C. for 15 minutes. Then density gradient centrifugation was performed using Nycodenz solution at the final solution of 1.089 g/cm^3. Liver sinusoidal endothelial cells (LSEC) were isolated using anti-LSEC microbeads (Miltenyi, Bergisch Gladbach, Germany) according to the manufacturer's instructions. LSECs or the human SK-HEP1 cell line (ATCC, HTB-52) were administered different bile acids for 24 hours. Gene expression was analyzed by real-time PCR. Taurocholic acid (TCA), chenodeoxycholic acid (CDCA), deoxycholic acid (DCA), and taurodeoxycholic acid (TDCA) were purchased from Sigma (now Millpore-Sigma, St. Louis, Mo., USA). […]

[2] = system: hepatic NKT cells; experiment: In vivo bile acids feeding, hepatic NKT cell levels; conditions: ABX-administered mice, oral gavage 6 mg/15 g body weight at 48, 24 and 16 hrs
Description: Mice were kept on ABX cocktail and fresh ABX was replaced every other day. Mice were fed with bile acids by oral gavage 48, 24 and 16 hrs prior to sacrifice.

[3] = system: CXCL16; experiment: CXCL16 mRNA in primary murine LSECs administered bile acids; type: cell-based, mice; conditions: primary murine LSECs in vitro, 24 hours
Description: FIG. 28E is a dot plot showing CXCL16 mRNA levels of isolated LSECs administered different bile acids, in accordance with embodiments of the invention. n=5, p<0.05, one-way ANOVA.
FIG. 28F is a dot plot showing CXCL16 mRNA levels of isolated LSECs administered a combination of T-b-MCA with T-w-MCA or ω-MCA. n=5, p<0.05, one-way ANOVA.
as §1, with “PCR.” for “PCR. Taurocholic acid (TCA), chenodeoxycholic acid (CDCA), deoxycholic acid (DCA), and taurodeoxycholic acid (TDCA) were purchased from Sigma (now Millpore-Sigma, St. Louis, Mo., USA).”

[4] = reported; cited from earlier work
[5] = system: hepatic NKT cells; experiment: Flow cytometry of liver and spleen immune cell subsets of treated mice; type: in vivo; conditions: single antibiotic; for hepatic CD4+ or CD8+ T cells: FIGS. 29H and 29I; for hepatic NKT cells: naïve C57BL/6 mice
Description: Cells were surface-labelled with the indicated antibodies for 15 min at 4° C. Intracellular staining using a Foxp3/transcription factor staining buffer set (eBioscience, now part of ThermoFisher Scientific, Waltham, Mass., USA) was used according the manufacturer's instructions. Flow cytometry was performed on a BD LSRFortessa platform (BD Biosciences, San Jose, Calif., USA) and results were analyzed using FlowJo software version 9.3.1.2 (TreeStar, Ashland, Oreg., USA). Dead cells were excluded by using live/dead fixable near-IR dead cell staining kit (ThermoFisher Scientific).
The following antibodies were used for flow cytometry analysis: anti-TCRβ-BV510 (clone H57-587, Biolegend, San Diego, Calif., USA), PBS57/CD1d-tetramer-APC (NIH core facility, Bethesda, Md., USA), anti-CXCR6-FITC (clone SA051D1, Biolegend), anti-CD3-PE (clone 17A2, Biolegend), anti-CD4-PE (clone RM4-5, Biolegend), anti-CD4-Alexa Fluor 700 (clone GK1.5, Biolegend), anti-CD8-BV210 (clone 53-61 Biolegend), anti-CD19-PerCP/Cy5.5 (clone eBiolD3, eBioscience), anti-CD49b (clone DX5, eBioscience), anti-TCRγ/δ-PE, (clone GL3, BD pharmingen, BD Biosciences), anti-CD11b-BV421 (clone M1/70, Biolegend), anti-Ly6G-Alexa Fluor 700 (clone 1A8, Biolegend), anti-Ly6C-APC (clone HK1.4, Biolegend), anti-CD44-PE/Cy7 (clone IM7, eBioscience), anti-CD62L-PerCP/Cy5.5 (MEL-14, Biolegend), anti-CD69-Pacific blue (clone H1.2F3, Biolegend), anti-CD25-FITC (clone 7D4, BD pharmingen), anti-4-1BB-PE (clone 17B5, Biolegend), anti-Foxp3-Alexa Fluor 488 (clone 22F6, Biolegend), anti-Tbet-Pacific Blue (clone 4B10, Biolegend), anti-RORγ-PE (clone B2D, eBioscience), anti-PLZF-PerCP/Cy5.5 (clone 9E12, Biolegend), anti-CD1d-PE (clone 1B1, eBioscience), anti-IFNγ-PE (clone XMG1.2, BD Biosciences), and anti-TNFα-PerCP/Cy5.5 (clone MP6-XT22, Biolegend).
The following markers were used for identifying different immune cell subsets: TCRβ^+CD1d-Teteramer^+ for NKT cells, CD3^+CD4^hi for hepatic CD4^+ T cells, CD3^+CD8^+ for CD8^+ T cells, CD3^−CD19^+ for B cells, CD3^−CD49b^+ for NK cells, CD3^+TCRγ/δ^+ for γ/δ T cells, CD11b^+Ly6G^+Ly6C^lo for G-MDSC. Absolute numbers were calculated by multiplying frequencies obtained from flow cytometry by the total live mononuclear cell count, and then divided by liver weight.

[6] = oral vancomycin, cited from earlier work
[7] = system: Clostridum Cluster XIVa; experiment: Stool levels of Clostridium Cluster XIVa by real-time PCR; type: in vivo, mice; conditions: single antibiotic administration
Description: FIG. 31 is a dot plot showing the stool levels of Clostridum Cluster XIVa from single antibiotic administration measured by real-time PCR. Mice were administered vancomycin, neomycin, cefoparazone or H2O. n=4 for H2O, 10 for vancomycin, 5 for neomycin, p<0.05, one-way ANOVA.
The 7α-dehydroxylation reaction is the most quantitatively important process performed by the gut bacteria in the production of secondary bile acids. This multistep biochemical process is restricted to a narrow phylogenetic group of gram-positive bacterial species belonging to the Clostridium cluster XIV.

[8] = system: stool bacteria; experiment: Stool bacteria analysis by 16S rRNA sequencing; type: in vivo, mice
Description: (§2) FIG. 33A is a line graph showing stool bacteria analysis performed by 16S rRNA sequencing, in accordance with embodiments of the invention. Five week old mice were administered vancomycin for one week. Then vancomycin was stopped, and mice were given oral gavage of C. scindens or vehicle (cessation). Measurements were taken twenty-four hours after gavage. Alpha diversity is shown.
as §2, with “33B” for “33A”, “dot plot” for “line graph”, “Beta” for “Alpha”
Mice were fed with vancomycin in drinking water (Hospira, 0.5 g/L) for one week. Fresh antibiotic water was replaced every other day. One week later vancomycin was stopped, and the mice were given oral gavage of 10^9 C. scindens or vehicle (anaerobic glycerol) every day for 5 days. C. scindens was purchased from ATCC (35704), and grown under anaerobic conditions. One day after gavage, the colonization of C. scindens were confirmed by real-time PCR using primers specific for C. scindens.
Mouse stool DNA extraction and 16S V4 tregion amplification were performed on the liquid handling robots (epMotion 5075 and epMotion 5073, Eppendorf, Hamburg, Germany). The V4 region of the 16S rDNA gene (515F-806R) was sequenced, generating partially overlapping, paired-end reads on the Illumina MiSeq platform (Illumina, San Diego, Calif., USA). After quality control filtering, a total of 3,979,728 reads were processed with an average of 132,657 reads per sample. The demultiplexed FASTQ files containing the 16S rRNA gene sequences were filtered for chimeric sequences using the USEARCH (Edgar, Bioinformatics, 26: 2460-2461 (2010), incorporated by reference herein; version 8.1.1831) utility's UCHIME implementation and the ‘gold’ database (version microbiomeutil-r20110519). The reads were then binned into Operational Taxonomic Units (OTUs) at 97% similarity using USEARCH's cluster_otus command. The OTUs thus obtained were classified and aligned using QIIME (Caporaso et al., Nat. Methods, 7: 335-336 (2010), incorporated by reference herein; version 1.9.1) scripts. The assign_taxonomy.py script was used to assign taxonomy using the default RDP method (Wang et al., Appl. Environ. Microbiol., 73: 5261-5267 (2007), incorporated by reference herein) and the default GreenGenes database (DeSantis et al., Appl. Environ. Microbiol., 72: 5069-5072 (2006), incorporated by reference herein). This provided insight into the larger trends at higher taxonomic levels (such as order Clostridiales).
Next, the possible role of Clostridium species on liver NKT cell accumulation was tested in a colonization experiment. Clostridium scindens was chosen because it is commonly found in both mice and human and has a conserved bai (“bile acid inducible”) gene operon for the 7α-dehydroxylation reaction. Mice were fed with vancomycin for one week to induce hepatic NKT cells, then vancomycin was stopped, and the mice were given C. scindens or vehicle. The successful colonization with Clostridium scindens was confirmed (FIG. 32). One day after oral gavage, fecal bacterial were analyzed by 16S rRNA sequencing (FIGS. 33A and 33B, Table 1).

[9] = fecal bacteria, one day after oral gavage

Molecule | cxcl16 mRNA expression [1] | bile acids in the gut [4] | hepatic CD4+ or CD8+ T cells [5] | hepatic NKT cells [5] | Clostridium in stool [7] | also measured
C[C@H](CCC(=O)O)[C@H]1CC[C@H]2[C@@H]3[C@H](O)C[C@@H]4C[C@H](O)CC[C@]4(C)[C@H]3CC[C@]12C [CDCA, chenodeoxycholic acid] | induced |  |  |  |  | hepatic NKT accumulation [2]: enhanced NKT cell accumulation
C[C@H](CCC(=O)NCCS(=O)(=O)O)[C@H]1CC[C@H]2[C@@H]3[C@@H](O)[C@@H](O)[C@@H]4C[C@H](O)CC[C@]4(C)[C@H]3CC[C@]12C [T-β-MCA, Tauro-β-muricholic acid] |  |  |  |  |  | cxcl16 mRNA expression [3]: induced
C[C@H](CCC(=O)NCCS(=O)(=O)O)[C@H]1CC[C@H]2[C@@H]3[C@H](O)C[C@@H]4C[C@H](O)CC[C@]4(C)[C@H]3C[C@H](O)[C@]12C [TCA, Taurocholic acid] | induced |  |  |  |  | 
CCN1CCN(C(=O)N[C@@H](C(=O)N[C@@H]2C(=O)N3C(C(=O)O)=C(CSc4nnnn4C)CS[C@H]23)c2ccc(O)cc2)C(=O)C1=O [cefoperazone] |  | deplete secondary bile acids and increase primary bile acids in the gut | No significant changes | increase of liver NKT cells |  | 
CN[C@H](CC(C)C)C(=O)N[C@H]1C(=O)N[C@@H](CC(N)=O)C(=O)N[C@H]2C(=O)N[C@H]3C(=O)N[C@H](C(=O)N[C@H](C(=O)O)c4cc(O)cc(O)c4-c4cc3ccc4O)[C@H](O)c3ccc(c(Cl)c3)Oc3cc2cc(c3O[C@@H]2O[C@H](CO)[C@@H](O)[C@H](O)[C@H]2O[C@H]2C[C@](C)(N)[C@H](O)[C@H](C)O2)Oc2ccc(cc2Cl)[C@H]1O [vancomycin] |  | deplete secondary bile acids and increase primary bile acids in the gut | No significant changes | sufficient to increase hepatic NKT cells | depleted Clostridium | fecal secondary bile acids ([6]; obese individuals): decreased fecal secondary bile acids; primary bile acids in plasma ([6]; postprandial): postprandial increase in primary bile acids in plasma; Bacteroidales [8, 9]: 0.0%; Burkholderiales [8, 9]: 4.4%; Clostridiales [8, 9]: 3.9%; Enterobacteriales [8, 9]: 10.7%; Lactobacillales [8, 9]: 43.7%; Verrucomicrobiales [8, 9]: 34.3%; change of stool bacteria populations, in words ([8]; vancomycin compared to H2O group, C. scindens gavage after vancomycin): reduction of Clostridiales and Bacteroidales but an expansion of Verrucomicrobiales
neomycin |  |  | No significant changes | little effect | could not remove Clostridium | 
